ChEMBL document CHEMBL5052852, “Substituted hydantoinamides as adamts7 antagonists” (2021)
pIC50: −log10 of the molar value.

Key:
[1] = Inhibition of recombinant rat/human ADAMTS12 hybrid using HiLyteFluor-488 DELSSMVLELRGLRT-K(QXL520)-E-NH2 as substrate incubated for 120 mins and measured by FRET assay
[2] = Inhibition of recombinant rat/human ADAMTS7 hybrid using HiLyteFluor-488 DELSSMVLELRGLRT-K(QXL520)-E-NH2 as substrate incubated for 120 mins and measured by FRET assay

Row | SMILES | pIC50 [1] | pIC50 [2]
1 | CC(C)C1(CNC(=O)c2cnn(-c3cccc(C#N)c3)n2)NC(=O)NC1=O (stereo in doubt) | 5.59 | 7.11
2 | Cn1ccnc1C1(CNC(=O)c2cnn(-c3ccc(F)cc3)n2)NC(=O)NC1=O (stereo in doubt) | 6.89 | 8.70
3 | CC(C)C1(CNC(=O)c2cnn(-c3ccc(F)c(F)c3)n2)NC(=O)NC1=O (stereo in doubt) | 6.04 | 8.15
4 | O=C1NC(=O)C(CNC(=O)c2cnn(-c3ccc(F)cc3)n2)(c2ncsc2C(F)(F)F)N1 (stereo in doubt) | 5.46 | 7.57
5 | CC(C)C1(CNC(=O)c2cnn(-c3ccc(Cl)c(F)c3)n2)NC(=O)NC1=O (stereo in doubt) | 6.00 | 8.15
6 | CC(C)C1(CNC(=O)c2cnn(-c3cccc(F)c3)n2)NC(=O)NC1=O (stereo in doubt) | 5.64 | 7.89
7 | Cn1ccnc1C1(CNC(=O)c2cnn(-c3cc(F)c(F)c(F)c3)n2)NC(=O)NC1=O (stereo in doubt) | 6.97 | 8.52
8 | CC1(CNC(=O)c2cnn(-c3ccc(F)cc3)n2)NC(=O)NC1=O (stereo in doubt) | 5.05 | 7.08
9 | CCC(C)C1(CNC(=O)c2cnn(-c3ccc(F)cc3)n2)NC(=O)NC1=O (stereo in doubt; form 1) | 5.54 | 7.21
10 | CC1(C)CC1C1(CNC(=O)c2cnn(-c3ccccc3)n2)NC(=O)NC1=O (stereo in doubt; form 1) | 4.89 | 6.49
11 | O=C1NC(=O)C(CNC(=O)c2cnn(-c3ccccc3)n2)(C2CCCOC2)N1 (stereo in doubt; form 1) | 5.40 | 6.82
12 | CCC(C)C1(CNC(=O)c2cnn(-c3ccc(F)cc3)n2)NC(=O)NC1=O (stereo in doubt; form 2) | 6.00 | 7.43
13 | CC1(C)CC1C1(CNC(=O)c2cnn(-c3ccccc3)n2)NC(=O)NC1=O (stereo in doubt; form 2) | 5.70 | 7.42
14 | O=C1NC(=O)C(CNC(=O)c2cnn(-c3ccccc3)n2)(C2CCCOC2)N1 (stereo in doubt; form 2) | 5.19 | 6.60
15 | O=C1NC(=O)C(CNC(=O)c2cnn(-c3ccc(F)cc3)n2)(c2ccccn2)N1 (stereo in doubt; form 2) | 4.30 | 6.23
